Experimental data published in US20110213179A1, “METHOD OF EVALUATING EVENNESS OF SUPLATAST TOSILATE CRYSTAL, EVEN CRYSTAL, AND PROCESS FOR PRODUCING THE SAME” (TAIHO PHARMACEUTICAL CO., LTD., priority 2004, published 2011).

Assay: Stability test: crystals stored at 60° C. for three months, amount of decomposition products
Type: physicochemical
Description: Suplatast tosilate crystals of the present invention produced in Examples 3 and 4 (Lots A and B) and first-form suplatast tosilate crystals produced through the method described in Japanese Patent Publication (kokoku) No. 1991-70698 (Lots C, D, and E) (1.0 g for each Lot) were stored at 60° C. for three months for stability measurement. For reference, second-form suplatast tosilate crystals produced through the method described in JP-A-1995-252213 (Lot F) and third-form suplatast tosilate crystals produced through the method described in WO 02/083633 (Lot G) were subjected to stability measurement in a manner similar to that described above.
As is clear from Table 1, all the first-form crystals produced through the conventionally known production method undergo decomposition, but the crystals produced through the production method of the present invention undergo virtually no decomposition and are stable.

| Amount (%) of suplatast tosilate decomposition products produced at 60° C.: Decomposition product 2 (1 month) [%] | Amount (%) of suplatast tosilate decomposition products produced at 60° C.: Decomposition product 3 (1 month) [%] | Amount (%) of suplatast tosilate decomposition products produced at 60° C.: Decomposition product 1 (1 month, p-toluenesulfonate) [%] | Amount (%) of suplatast tosilate decomposition products produced at 60° C.: Total amount of decomposition products (1 month, p-toluenesulfonate) [%] | Amount (%) of suplatast tosilate decomposition products produced at 60° C.: Decomposition product 1 (2 months, p-toluenesulfonate) [%] | Amount (%) of suplatast tosilate decomposition products produced at 60° C.: Decomposition product 2 (2 months, p-toluenesulfonate) [%] | Amount (%) of suplatast tosilate decomposition products produced at 60° C.: Decomposition product 3 (2 months, p-toluenesulfonate) [%] | Amount (%) of suplatast tosilate decomposition products produced at 60° C.: Total amount of decomposition products (2 months, p-toluenesulfonate) [%] | Amount (%) of suplatast tosilate decomposition products produced at 60° C.: Decomposition product 1 (3 months, p-toluenesulfonate) [%] | Amount (%) of suplatast tosilate decomposition products produced at 60° C.: Decomposition product 2 (3 months, p-toluenesulfonate) [%] | Amount (%) of suplatast tosilate decomposition products produced at 60° C.: Decomposition product 3 (3 months, p-toluenesulfonate) [%] | Amount (%) of suplatast tosilate decomposition products produced at 60° C.: Total amount of decomposition products (3 months, p-toluenesulfonate) [%] | SMILES |
| --- | --- | --- | --- | --- | --- | --- | --- | --- | --- | --- | --- | --- |
| 0.0 | 0.0 | 0.0 | 0.0 | 0.4 | 0.2 | 0.1 | 0.7 | 0.9 | 0.3 | 0.3 | 1.5 | CCOCC(O)COc1ccc(NC(=O)CC[S+](C)C)cc1.Cc1ccc(S(=O)(=O)[O-])cc1 (racemic) [First-form crystals Lot D, (±)-[2-[4-(3-ethoxy-2-hydroxypropoxy)phenylcarbamoyl]ethyl]dimethylsulfonium p-toluenesulfonate] |
| 0.0 | 0.0 | 0.0 | 0.0 | 0.0 | 0.0 | 0.0 | 0.0 | 0.0 | 0.0 | 0.0 | 0.0 | CCOCC(O)COc1ccc(NC(=O)CC[S+](C)C)cc1.Cc1ccc(S(=O)(=O)[O-])cc1 (racemic) [Third-form crystals (ref.), (±)-[2-[4-(3-ethoxy-2-hydroxypropoxy)phenylcarbamoyl]ethyl]dimethylsulfonium p-toluenesulfonate] |
| 0.0 | 0.0 | 0.0 | 0.0 | 0.0 | 0.0 | 0.0 | 0.0 | 0.1 | 0.1 | 0.0 | 0.2 | CCOCC(O)COc1ccc(NC(=O)CC[S+](C)C)cc1.Cc1ccc(S(=O)(=O)[O-])cc1 (racemic) [Second-form crystals (ref.), (±)-[2-[4-(3-ethoxy-2-hydroxypropoxy)phenylcarbamoyl]ethyl]dimethylsulfonium p-toluenesulfonate] |
| 0.0 | 0.0 | 0.1 | 0.1 | 0.6 | 0.3 | 0.2 | 1.1 | 1.3 | 0.4 | 0.4 | 2.1 | CCOCC(O)COc1ccc(NC(=O)CC[S+](C)C)cc1.Cc1ccc(S(=O)(=O)[O-])cc1 (racemic) [First-form crystals Lot C, (±)-[2-[4-(3-ethoxy-2-hydroxypropoxy)phenylcarbamoyl]ethyl]dimethylsulfonium p-toluenesulfonate] |
| 0.0 | 0.0 | 0.0 | 0.0 | 0.0 | 0.0 | 0.0 | 0.0 | 0.0 | 0.0 | 0.0 | 0.0 | CCOCC(O)COc1ccc(NC(=O)CC[S+](C)C)cc1.Cc1ccc(S(=O)(=O)[O-])cc1 (racemic) [Invention crystals (Ex. 4), (±)-[2-[4-(3-ethoxy-2-hydroxypropoxy)phenylcarbamoyl]ethyl]dimethylsulfonium p-toluenesulfonate] |
| 0.0 | 0.0 | 0.0 | 0.0 | 0.3 | 0.1 | 0.1 | 0.5 | 0.9 | 0.2 | 0.3 | 1.4 | CCOCC(O)COc1ccc(NC(=O)CC[S+](C)C)cc1.Cc1ccc(S(=O)(=O)[O-])cc1 (racemic) [First-form crystals Lot E, (±)-[2-[4-(3-ethoxy-2-hydroxypropoxy)phenylcarbamoyl]ethyl]dimethylsulfonium p-toluenesulfonate] |
| 0.0 | 0.0 | 0.0 | 0.0 | 0.0 | 0.0 | 0.0 | 0.0 | 0.0 | 0.0 | 0.0 | 0.0 | CCOCC(O)COc1ccc(NC(=O)CC[S+](C)C)cc1.Cc1ccc(S(=O)(=O)[O-])cc1 (racemic) [Invention crystals (Ex. 3), (±)-[2-[4-(3-ethoxy-2-hydroxypropoxy)phenylcarbamoyl]ethyl]dimethylsulfonium p-toluenesulfonate] |
